Experimental data from patent publication US12161631B2, “Liquid pharmaceutical formulation” (PROJECT PHARMACEUTICS GMBH, priority 2018, dated 2024).
Read-outs that look alike come from different tables or passages of the source.

Assays:
[1] = formulation CaCl2 99.9 mg | PG ad 1000 mg
Description: The purity of Bendamustine hydrochloride and quantity was determined as follows using a standard curve: • Column type: C18, 100×4.6 mm, 2.6 μm • Mobile phase: A: Water/ACN/TFA=950/50/1 v/v/v • B: Water/ACN/TFA=50/950/1 v/v/v • Column temperature: 25° C. • Autosampler temperature: 25° C. • Flow rate: 1.2 mL/min • Detection wavelength: 234 nm HPLC Gradient
To serve as a direct reference, Bendamustine-HCl was also included in the study.
The following compositions were prepared, filled into type 1 glass vials, closed with a rubber stopper and crimp caped. The closed vials were stored at a temperature of 40° C.
At defined time points samples were taken and analyzed be mans of the RP-HPLC method described in Example 1.

[2] = Stabilizer solubility study (Example 2); assay type: physicochemical; settings: dissolved at 40° C., stored at 2° C.-5° C. over-night
Description: The solubility of potential stabilizers to be tested for Bendamustine-HCl liquid formulation was evaluated in polypropylene glycol. The respective chemical was dissolved in water under continuous stirring at 40° C.

[3] = Dose dependent stabilization effect of calcium chloride in PEG400 (Example 8), purity and content by RP-HPLC; settings: PEG400/PG and PEG400/ethanol solvent mixtures; 40° C., 8 weeks
Description: The organic solvent systems PEG400 with a small amount of alcoholic solvents 1,2-propanediol or ethanol (10% w/w) are to be investigated.
The following Bendamustine containing compositions were prepared. […] The preparations were filled into type 1 glass vials and stoppered with nitrogen overlay. The closed vials were stored at 40° C.:
The purity of Bendamustine-HCl was assessed via RP-HPLC and expressed by relative main peak area. Measurements were carried out in duplicate.
The content of Bendamustine-HCl was assessed via RP-HPLC using a 25 mg/g Bendamustine-HCl standard as reference. Standard solutions were freshly prepared for each individual sampling time point. Standard curves were recorded in duplicate at the beginning and at the end of each sequence. Samples were analyzed in duplicate.

[4] = assay type: physicochemical; settings: in propylene glycol and in PEG400/PG solvent mixture
Description: The following Bendamustine containing compositions (25 mg Bendamustine/HCl in 4 g solution) were prepared, filled into type 1 glass vials.

Row | SMILES | Purity at 40° C. as relative main peak area [%] by RP-HPLC ([1]; 0 days) [%] | Purity at 40° C. as relative main peak area [%] by RP-HPLC ([1]; 7 days) [%] | Purity at 40° C. as relative main peak area [%] by RP-HPLC ([1]; 14 days) [%] | Purity at 40° C. as relative main peak area [%] by RP-HPLC ([1]; 28 days) [%] | Rel. content at 40° C. determined by RP-HPLC using a calibration curve ([1]; 0 days (ref. T=0)) [%] | Rel. content at 40° C. determined by RP-HPLC using a calibration curve ([1]; 7 days (ref. T=0)) [%] | Rel. content at 40° C. determined by RP-HPLC using a calibration curve ([1]; 14 days (ref. T=0)) [%] | Rel. content at 40° C. determined by RP-HPLC using a calibration curve ([1]; 28 days (ref. T=0)) [%] | other results
1 | Nc1ncn([C@@H]2O[C@H](CO)[C@@H](O)[C@H]2O)c(=O)n1 [Azacitidine] | 100 | 99.8 | 97.7 | 0.0 | – | – | – | – | –
2 | Cn1c(CCCC(=O)O)nc2cc(N(CCCl)CCCl)ccc21 [Bendamustine] | 99.7 | 98.9 | 98.4 | – | 100 | 98.9 | 98.4 | 95.3 | –
3 | [Br-].[Br-].[Ca+2] [CaBr2] | – | – | – | – | – | – | – | – | Outcome (stabilizer solubility) ([2]; target concentration 0.9 mol/kg): Complete dissolution
4 | [Ca+2].[Cl-].[Cl-] [CaCl2, calcium chloride] | – | – | – | – | – | – | – | – | stabilizing effect on Bendamustine (discussion, in words) [3]: clear dose depending stabilizing effect
5 | O=NN(CCCl)C(=O)NCCCl [Carmustine] | 95.8 | 2.1 | 2.0 | 1.9 | 100 | 3.6 | 1.3 | 1.3 | –
6 | C[N+](C)(C)CCO.[Cl-] [Choline-HCl, choline chloride] | – | – | – | – | – | – | – | – | Outcome (stabilizer solubility) ([2]; target concentration 1.8 mol/kg): Complete dissolution
7 | CC(=O)[O-].[K+] [KAc] | – | – | – | – | – | – | – | – | stabilizing effect on Bendamustine (conclusion) [4]: no significant stabilizing effect
8 | N[C@@H](Cc1ccc(N(CCCl)CCCl)cc1)C(=O)O [Melphalan] | 99.8 | 98.1 | 97.4 | 95.4 | 100 | 84.6 | 86.2 | 86.5 | –
